Test results reported in patent publication US10456358B2, “Isoxazoline compositions and use thereof in the prevention or treatment of parasite infestations in animals” (Intervet Inc., priority 2013, dated 2019).

Tests used:
[1] = Tolerability in hens in the efficacy study; type: in vivo; details: 0.5-2 mg fluralaner/kg BW via medicated drinking water
Method: Groups A-D (n=6) were treated with doses of 2, 1 and 0.5 mg fluralaner/kg BW once or 1 mg fluralaner/kg BW twice (0.5 mg/kg BW on 2 occasions).
On D0 (group D additionally on D7), the hens in groups A-D received fluralaner via medicated drinking water. Group E received un-medicated drinking water ad libitum.

[2] = Technological study: fluralaner concentration at drinking nipples of a poultry house water system; type: physicochemical
Method: The study was conducted in a commercial poultry house for approximately 36000 replacement chickens with 4 batteries each with 3 levels. 4 PVC water dead-end pipes, (78 m long) supplied water for each battery.
Drinking nipples (Big Dutchman types “screw nipples” and “Top”, equipped with a single-arm plastic drip cup) were fitted to the water pipes. In this facility the delivery of the concentrated composition to the drinking nipples using both a dosing pump system and a medication tank was evaluated. • a) Dosing Pump • The dosing pump and its stock solution container were installed in a water hose coming from the water supply pipe and ending in a water tank that was metered for […]. • The dosing pump was set for 5% injection rate. The stock solution container was filled with a total of 8.8 L (175×0.05 [5%]). • Once the container was filled, the calculated volume of 193 mL of the concentrated composition was poured into the container and subsequently stirred. • The dosing pump was connected to the water distribution pipe and the pipe system filled with the medicated water. • b) Medication Tank • The medication tank was filled with 175 L of tap water. • The calculated volume of 193 mL of the concentrated composition was poured into the container and subsequently stirred. • The medication tank was connected to the water distribution pipe and the pipe system filled with the medicated water.
No animals were present in the cages. Therefore the water lines were opened every 10 min to mimic a continuous (intermittent) drinking water flow. At each draining 7.3 L of medicated water was allowed to drain at the dead-end side of the pipe.
Samples of medicated water was taken from 6 drinking nipples: the first and last drinking nipple in a drinker line, and from 4 drinking nipples having an equal distance at pre-defined time points, with a maximum of 4 h and analysed for fluralaner concentration.

Cc1cc(C2=NOC(c3cc(Cl)cc(Cl)c3)(C(F)(F)F)C2)ccc1C(=O)NCC(=O)NCC(F)(F)F (centres unmarked) [fluralaner, 4-[5-(3,5-Dichlorophenyl)-5-trifluoromethyl-4,5-dihydroisoxazol-3-yl]-2-methyl-N-[(2,2,2-trifluoro-ethylcarbamoyl)-methyl]-benzamide]
tolerability [1]: well tolerated
Deviation of fluralaner concentration at the drinking nipple from nominal concentration (percent) ([2]; Dosing pump system, Nipple 1, T 30 min): −10%
Deviation of fluralaner concentration at the drinking nipple from nominal concentration (percent) ([2]; Dosing pump system, Nipple 1, T 60 min): −10%
Deviation of fluralaner concentration at the drinking nipple from nominal concentration (percent) ([2]; Dosing pump system, Nipple 1, T 120 min): −9%
Deviation of fluralaner concentration at the drinking nipple from nominal concentration (percent) ([2]; Dosing pump system, Nipple 1, T 180 min): −9%
Deviation of fluralaner concentration at the drinking nipple from nominal concentration (percent) ([2]; Dosing pump system, Nipple 1, T 240 min): −9%
Deviation of fluralaner concentration at the drinking nipple from nominal concentration (percent) ([2]; Dosing pump system, Nipple 2, T 30 min): −9%
Deviation of fluralaner concentration at the drinking nipple from nominal concentration (percent) ([2]; Dosing pump system, Nipple 2, T 60 min): −14%
Deviation of fluralaner concentration at the drinking nipple from nominal concentration (percent) ([2]; Dosing pump system, Nipple 2, T 120 min): −12%
Deviation of fluralaner concentration at the drinking nipple from nominal concentration (percent) ([2]; Dosing pump system, Nipple 2, T 180 min): −9%
Deviation of fluralaner concentration at the drinking nipple from nominal concentration (percent) ([2]; Dosing pump system, Nipple 2, T 240 min): −9%
Deviation of fluralaner concentration at the drinking nipple from nominal concentration (percent) ([2]; Dosing pump system, Nipple 3, T 30 min): −9%
Deviation of fluralaner concentration at the drinking nipple from nominal concentration (percent) ([2]; Dosing pump system, Nipple 3, T 60 min): −10%
Deviation of fluralaner concentration at the drinking nipple from nominal concentration (percent) ([2]; Dosing pump system, Nipple 3, T 120 min): −10%
Deviation of fluralaner concentration at the drinking nipple from nominal concentration (percent) ([2]; Dosing pump system, Nipple 3, T 180 min): −14%
Deviation of fluralaner concentration at the drinking nipple from nominal concentration (percent) ([2]; Dosing pump system, Nipple 3, T 240 min): −14%
Deviation of fluralaner concentration at the drinking nipple from nominal concentration (percent) ([2]; Dosing pump system, Nipple 4, T 30 min): −12%
Deviation of fluralaner concentration at the drinking nipple from nominal concentration (percent) ([2]; Dosing pump system, Nipple 4, T 60 min): −16%
Deviation of fluralaner concentration at the drinking nipple from nominal concentration (percent) ([2]; Dosing pump system, Nipple 4, T 120 min): −14%
Deviation of fluralaner concentration at the drinking nipple from nominal concentration (percent) ([2]; Dosing pump system, Nipple 4, T 180 min): −10%
Deviation of fluralaner concentration at the drinking nipple from nominal concentration (percent) ([2]; Dosing pump system, Nipple 4, T 240 min): −10%
Deviation of fluralaner concentration at the drinking nipple from nominal concentration (percent) ([2]; Dosing pump system, Nipple 5, T 30 min): −12%
Deviation of fluralaner concentration at the drinking nipple from nominal concentration (percent) ([2]; Dosing pump system, Nipple 5, T 60 min): −10%
Deviation of fluralaner concentration at the drinking nipple from nominal concentration (percent) ([2]; Dosing pump system, Nipple 5, T 120 min): −11%
Deviation of fluralaner concentration at the drinking nipple from nominal concentration (percent) ([2]; Dosing pump system, Nipple 5, T 180 min): −10%
Deviation of fluralaner concentration at the drinking nipple from nominal concentration (percent) ([2]; Dosing pump system, Nipple 5, T 240 min): −10%
Deviation of fluralaner concentration at the drinking nipple from nominal concentration (percent) ([2]; Dosing pump system, Nipple 6, T 30 min): −26%
Deviation of fluralaner concentration at the drinking nipple from nominal concentration (percent) ([2]; Dosing pump system, Nipple 6, T 60 min): −10%
Deviation of fluralaner concentration at the drinking nipple from nominal concentration (percent) ([2]; Dosing pump system, Nipple 6, T 120 min): −11%
Deviation of fluralaner concentration at the drinking nipple from nominal concentration (percent) ([2]; Dosing pump system, Nipple 6, T 180 min): −11%
Deviation of fluralaner concentration at the drinking nipple from nominal concentration (percent) ([2]; Dosing pump system, Nipple 6, T 240 min): −10%
Deviation of fluralaner concentration at the drinking nipple from nominal concentration (percent) ([2]; Medication tank system, Nipple 1, T 30 min): −5%
Deviation of fluralaner concentration at the drinking nipple from nominal concentration (percent) ([2]; Medication tank system, Nipple 1, T 60 min): −4%
Deviation of fluralaner concentration at the drinking nipple from nominal concentration (percent) ([2]; Medication tank system, Nipple 1, T 120 min): −4%
Deviation of fluralaner concentration at the drinking nipple from nominal concentration (percent) ([2]; Medication tank system, Nipple 1, T 180 min): −5%
Deviation of fluralaner concentration at the drinking nipple from nominal concentration (percent) ([2]; Medication tank system, Nipple 1, T 240 min): −10%
Deviation of fluralaner concentration at the drinking nipple from nominal concentration (percent) ([2]; Medication tank system, Nipple 2, T 30 min): −7%
Deviation of fluralaner concentration at the drinking nipple from nominal concentration (percent) ([2]; Medication tank system, Nipple 2, T 60 min): −5%
Deviation of fluralaner concentration at the drinking nipple from nominal concentration (percent) ([2]; Medication tank system, Nipple 2, T 120 min): −4%
Deviation of fluralaner concentration at the drinking nipple from nominal concentration (percent) ([2]; Medication tank system, Nipple 2, T 180 min): −5%
Deviation of fluralaner concentration at the drinking nipple from nominal concentration (percent) ([2]; Medication tank system, Nipple 2, T 240 min): −4%
Deviation of fluralaner concentration at the drinking nipple from nominal concentration (percent) ([2]; Medication tank system, Nipple 3, T 30 min): −5%
Deviation of fluralaner concentration at the drinking nipple from nominal concentration (percent) ([2]; Medication tank system, Nipple 3, T 60 min): −4%
Deviation of fluralaner concentration at the drinking nipple from nominal concentration (percent) ([2]; Medication tank system, Nipple 3, T 120 min): −4%
Deviation of fluralaner concentration at the drinking nipple from nominal concentration (percent) ([2]; Medication tank system, Nipple 3, T 180 min): −4%
Deviation of fluralaner concentration at the drinking nipple from nominal concentration (percent) ([2]; Medication tank system, Nipple 3, T 240 min): −4%
Deviation of fluralaner concentration at the drinking nipple from nominal concentration (percent) ([2]; Medication tank system, Nipple 4, T 30 min): −6%
Deviation of fluralaner concentration at the drinking nipple from nominal concentration (percent) ([2]; Medication tank system, Nipple 4, T 60 min): −5%
Deviation of fluralaner concentration at the drinking nipple from nominal concentration (percent) ([2]; Medication tank system, Nipple 4, T 120 min): −4%
Deviation of fluralaner concentration at the drinking nipple from nominal concentration (percent) ([2]; Medication tank system, Nipple 4, T 180 min): −4%
Deviation of fluralaner concentration at the drinking nipple from nominal concentration (percent) ([2]; Medication tank system, Nipple 4, T 240 min): −3%
Deviation of fluralaner concentration at the drinking nipple from nominal concentration (percent) ([2]; Medication tank system, Nipple 5, T 30 min): −8%
Deviation of fluralaner concentration at the drinking nipple from nominal concentration (percent) ([2]; Medication tank system, Nipple 5, T 60 min): −4%
Deviation of fluralaner concentration at the drinking nipple from nominal concentration (percent) ([2]; Medication tank system, Nipple 5, T 120 min): −4%
Deviation of fluralaner concentration at the drinking nipple from nominal concentration (percent) ([2]; Medication tank system, Nipple 5, T 180 min): −4%
Deviation of fluralaner concentration at the drinking nipple from nominal concentration (percent) ([2]; Medication tank system, Nipple 5, T 240 min): −6%
Deviation of fluralaner concentration at the drinking nipple from nominal concentration (percent) ([2]; Medication tank system, Nipple 6, T 30 min): −6%
Deviation of fluralaner concentration at the drinking nipple from nominal concentration (percent) ([2]; Medication tank system, Nipple 6, T 60 min): −6%
Deviation of fluralaner concentration at the drinking nipple from nominal concentration (percent) ([2]; Medication tank system, Nipple 6, T 120 min): −4%
Deviation of fluralaner concentration at the drinking nipple from nominal concentration (percent) ([2]; Medication tank system, Nipple 6, T 180 min): −5%
Deviation of fluralaner concentration at the drinking nipple from nominal concentration (percent) ([2]; Medication tank system, Nipple 6, T 240 min): −4%
fluralaner concentration in the drinking water over time and along the drinking water line ([2]; up to 4 hours, medication tank and dosing pump): remains constant over time and along the drinking water line
